Data published in patent publication US20050065118A1, “Organosulfur inhibitors of tyrosine phosphatases” (priority 2001, published 2005).

Tests used:
[1] = target: T1, PTP-1B (Homo sapiens, UniProt P18031); test: PTP-1B inhibition, Malachite Green assay with pIRP substrate; assay type: biochemical
T1 sequence (P18031 1-435): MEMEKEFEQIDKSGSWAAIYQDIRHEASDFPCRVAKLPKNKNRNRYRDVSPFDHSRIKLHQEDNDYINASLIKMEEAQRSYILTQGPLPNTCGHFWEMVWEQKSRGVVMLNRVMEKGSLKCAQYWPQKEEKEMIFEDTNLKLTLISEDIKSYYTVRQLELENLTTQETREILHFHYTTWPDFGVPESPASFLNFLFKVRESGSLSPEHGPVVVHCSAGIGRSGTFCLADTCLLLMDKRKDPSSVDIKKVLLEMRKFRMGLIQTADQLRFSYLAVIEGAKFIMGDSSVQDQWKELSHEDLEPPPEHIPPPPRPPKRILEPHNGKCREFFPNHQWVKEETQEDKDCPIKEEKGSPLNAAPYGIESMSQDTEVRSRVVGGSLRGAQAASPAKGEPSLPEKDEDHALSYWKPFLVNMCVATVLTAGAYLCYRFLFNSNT
Method: The compounds of the present invention are evaluated for biological activity as inhibitors of PTP-1B using, for example, a Malachite Green assay with pIRP as a substrate. The pIRP substrate includes a phosphotyrosine residue, and PTP-1B cleaves the phosphate group from the tyrosine, yielding the peptide and phosphate. The rate of the enzymatic reaction is determined by measuring the phosphate released during the reaction.
The reactants for the assay include 20 mM Tris-HCl, pH 7.4, 2 mM EDTA (ethylaminediamine tetraacetic acid) and 2 mM DTT (dithiothreitol) as the assay buffer, and 1 mM pIRP in assay buffer (1 mg in 0.59 mL buffer) as the substrate stock. The Malachite Green solution is prepared by adding 30 μL of 1% Tween 20 to 1 mL of Malachite Green Solution A. The stock of each compound to be tested is made up as 10 mM in DMSO (dimethylsulfoxide).
The compound to be tested is prepared as 1:5, 1:15.8, 1:50 and 1:158 dilutions from stock in a total volume of […]. The reaction mixtures are prepared in a 96-well microtiter plate as 27.5 μL assay buffer, […] of the diluted compound (to a final concentration of 100, 32, 10 and 3.2 μM), 10 μL of the pIRP substrate solution (to a final concentration of 200 μM) and 10 μL PTPase in assay buffer. The reactants are mixed well, the plate placed in a water bath at 30° C. and incubated for 3 minutes. The reaction is then terminated by adding 100 μL of Malachite Green solution per well, color is allowed to develop for 15 minutes, and the A650 is measured by conventional means.
Unless otherwise indicated, this assay was used to determine activity for the selected compounds whose activity is recorded in the Table.

[2] = target: T2, PTP-β (Homo sapiens, UniProt P23467); test: PTP-β inhibition, pNPP tyrosine phosphatase assay; assay type: biochemical
T2 construct: purchased UBI #14-350
Method: (§1) Alternatively, a pNPP assay can be used to screen compounds for tyrosine phosphatase inhibitory activity as follows: A 5× stock of pNPP (p-nitrophenol phosphate) substrate is prepared as 50 mM pNPP in assay buffer prepared as described above. Various tyrosine phosphatase solutions can be prepared as follows: • PTP-1B (SBI purified, 1 mg/mL) as a 1:250 dilution (to a final concentration of 4 μg/mL); • TC-PTP (NEB, 1000 units in 100 μL) as a 1:50 dilution (to a final concentration of 2U/10 μL (4 μg/mL)); • CD45 (Calbiochem, 20 μg, 400 units in 100 μL) as a 1:50 dilution (to a final concentration of 0.8U/10 μL (4 μg/mL)); • LAR (NEB, 1000 units in 200 μL) as a 1:75 dilution (to a final concentration of 0.7U/10 μL (4 μg/mL)); and • PTP-β (UBI, #14-350, 10,000 units, 40 μg/571 μL) as a 1:17.5 dilution (to a final concentration of 10U/10 μL (4 μg/mL));
(§2) The compound to be tested is prepared as 1:16.7 and 1:50 dilutions from stock in a total volume of […] to give final concentrations of 626 and 200 μM. The reaction mixtures are prepared in a 96-well microtiter plate (on ice) as 55 μL assay buffer, 5 μL of the diluted compound (to a final concentration of 31.3 and 10 μM), 20 μL of the pNPP substrate solution (to a final concentration of 10 mM) and 20 μL PTease in assay buffer. The reactants are mixed well, the plate placed in a water bath at 30° C. and incubated for 10 minutes. The reaction is then terminated by adding 100 μL of 2M K2CO3 per well, and the absorbance is measured at 405 nm by conventional means.

[3] = target: T3, CD-45 (Homo sapiens, UniProt P08575); test: CD45 inhibition, pNPP tyrosine phosphatase assay; assay type: biochemical
T3 construct: purchased Calbiochem
T3 sequence (P08575 609-1306 limits assumed): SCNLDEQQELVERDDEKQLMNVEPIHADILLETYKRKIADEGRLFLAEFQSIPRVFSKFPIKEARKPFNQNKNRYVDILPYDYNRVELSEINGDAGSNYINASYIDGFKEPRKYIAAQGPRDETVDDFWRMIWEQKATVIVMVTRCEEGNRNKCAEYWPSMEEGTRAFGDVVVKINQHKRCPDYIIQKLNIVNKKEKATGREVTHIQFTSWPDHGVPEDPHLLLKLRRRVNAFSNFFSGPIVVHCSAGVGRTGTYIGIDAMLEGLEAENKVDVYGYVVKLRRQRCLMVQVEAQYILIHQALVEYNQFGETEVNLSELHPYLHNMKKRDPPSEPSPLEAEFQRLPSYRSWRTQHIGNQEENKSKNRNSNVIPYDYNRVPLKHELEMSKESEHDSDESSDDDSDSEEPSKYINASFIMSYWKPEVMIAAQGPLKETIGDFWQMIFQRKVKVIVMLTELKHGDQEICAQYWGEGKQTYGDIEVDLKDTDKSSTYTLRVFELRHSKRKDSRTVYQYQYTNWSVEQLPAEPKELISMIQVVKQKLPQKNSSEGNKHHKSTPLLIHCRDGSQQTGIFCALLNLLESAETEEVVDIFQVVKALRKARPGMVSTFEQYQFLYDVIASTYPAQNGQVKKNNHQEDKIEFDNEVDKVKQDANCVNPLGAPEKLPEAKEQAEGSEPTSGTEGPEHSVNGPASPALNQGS
Method: as §1, §2

T2 sequence (P23467 1643-1997 limits assumed): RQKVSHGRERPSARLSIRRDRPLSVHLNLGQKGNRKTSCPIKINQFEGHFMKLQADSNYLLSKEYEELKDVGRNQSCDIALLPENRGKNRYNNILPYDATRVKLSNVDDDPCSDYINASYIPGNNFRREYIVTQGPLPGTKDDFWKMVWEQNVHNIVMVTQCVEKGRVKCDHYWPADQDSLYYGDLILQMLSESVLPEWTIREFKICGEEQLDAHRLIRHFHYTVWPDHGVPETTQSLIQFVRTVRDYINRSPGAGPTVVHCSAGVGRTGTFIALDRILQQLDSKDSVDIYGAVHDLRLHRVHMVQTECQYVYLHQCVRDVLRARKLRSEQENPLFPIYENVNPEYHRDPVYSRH

With `COc1cccc(-c2nn3cc(-c4ccc(-c5ccccc5)cc4)nc3s2)c1` [Example 16, (3-methoxy-1-(6-(4-phenylphenyl)imidazolo(2,1-b)1,3,4-thiadiazolin-2-yl)benzene)] the IC50 [1] was 12 µM, the IC50 [2] was > 100 µM and the IC50 [3] was 30 µM.

With `O=C(O)c1ccc(CN(c2ccc(Cl)c(Cl)c2)c2nc(-c3ccc(-c4ccccc4)cc3)cs2)cc1` [Example 168, 4-({(3,4-dichlorophenyl)[4-(4-phenylphenyl)(1,3-thiazol-2-yl)]amino}methyl)benzoic acid.] the IC50 [1] was 1 µM.

With `C/C(=N\OCC(=O)O)c1cccc(Nc2nnc(-c3cccc(Oc4cccc(C(F)(F)F)c4)c3)s2)c1` [Compound 190, [1-(3-{5-[3-(3-Trifluoromethyl-phenoxy)-phenyl]-[1,3,4]thiadiazol-2-ylamino}-phenyl)-ethylideneaminooxy]acetic acid] the IC50 [1] was 5 µM and the melting point was 220 °C (dec.).

`O=C(O)c1cccc(Nc2nnc(-c3cc(OCc4ccccc4)cc(OCc4ccccc4)c3)s2)c1` [Compound 188, 3-[5-(3,5-Bis-benzyloxy-phenyl)-[1,3,4]thiadiazol-2-ylamino]-benzoic acid] gave an IC50 [1] of 10 µM.

With `FC(F)(F)c1cccc(Oc2cccc(-c3nnc(Nc4ccc(Cl)c(Cl)c4)s3)c2)c1` [Example 154, (3,4-dichlorophenyl)(5-{3-[3-(trifluoromethyl)phenoxy]phenyl}(1,3,4-thiadiazol-2-yl))amine] the melting point was 212 to 213 °C.

With `O=[N+]([O-])c1cccc(-c2nnc(Nc3cccc(Cl)c3Cl)s2)c1` [Example 76, (2,3-dichlorophenyl)[5-(3-nitrophenyl)(1,3,4-thiadiazol-2-yl)]amine] the melting point was 240 to 242 °C.

`CCOc1cccc(-c2nnc(Nc3ccc(F)c(Cl)c3)s2)c1` [Example 70, (3-chloro-4-fluorophenyl)[5-(3-ethoxyphenyl)(1,3,4-thiadiazol-2-yl)]amine] gave a melting point of 170 to 172 °C.

Molecule `CCOc1cccc(-c2nnc(N(Cc3cccc([N+](=O)[O-])c3)c3ccc(Cl)c(Cl)c3)s2)c1` [Example 147, (3,4-dichlorophenyl)[5-(3-ethoxyphenyl)(1,3,4-thiadiazol-2-yl)][(3-nitrophenyl)methyl]amine] has a melting point of 114 to 115 °C.

Work on `Cc1ccc(Oc2cccc(-c3nnc(Nc4ccc(Cl)c(Cl)c4)s3)c2)cc1` [Example 151, (3,4-dichlorophenyl){5-[3-(4-methylphenoxy)phenyl](1,3,4-thiadiazol-2-yl)}amine] yielded a melting point of 210 to 211 °C.

In the case of `COc1cccc(-c2nnc(Nc3ccc(F)c(Cl)c3)s2)c1` [Example 68, (3-chloro-4-fluorophenyl)[5-(3-methoxyphenyl)(1,3,4-thiadiazol-2-yl)]amine], the melting point is reported as 185 to 187 °C.

With `O=C(O)Cc1cccc(Oc2cccc(-c3nnc(Nc4ccc(Cl)c(Cl)c4)s3)c2)c1` [Example 127, 2-[3-(3-{5-[(3,4-dichlorophenyl)amino]-1,3,4-thiadiazol-2-yl}phenoxy)phenyl]acetic acid] the melting point was 183 to 184 °C.

In the case of `O=[N+]([O-])c1cccc(Oc2cccc(-c3nnc(Nc4ccc(Cl)c(Cl)c4)s3)c2)c1` [Example 126, (3,4-dichlorophenyl){5-[3-(3-nitrophenoxy)phenyl](1,3,4-thiadiazol-2-yl)}amine], the melting point is reported as 210.5 to 211.5 °C.

With `O=C(O)CCCn1nnnc1-c1cccc(Oc2cccc(-c3nnc(Nc4ccc(Cl)c(Cl)c4)s3)c2)c1` [Example 171] the IC50 [1] was 2 µM and the melting point was 137 to 142 °C (dec.).

`O=[N+]([O-])c1ccccc1OCc1nnc(Nc2cccc(Br)c2)s1` [Example 36, (3-Bromophenyl){5-[(2-nitrophenoxy)methyl](1,3,4-thiadiazol-2-yl)}amine] showed a melting point of 184 to 185 °C.

For `O=C(O)c1ccc(CN(c2ccc(Cl)c(Cl)c2)c2nnc(-c3cccc(Oc4cccc(C(F)(F)F)c4)c3)s2)cc1` [Example 157, 4-{[(3,4-dichlorophenyl)(5-{3-[3-(trifluoromethyl)phenoxy]phenyl}-(1,3,4-thiadiazol-2-yl))amino]methyl}benzoic acid], the melting point was 114 to 116 °C.

`CCOC(=O)c1ccc(Nc2nnc(-c3ccc(Oc4ccccc4)cc3)s2)cc1` [Example 123, ethyl 4-{[5-(4-phenoxyphenyl)-1,3,4-thiadiazol-2-yl]amino}benzoate] showed a melting point of 206 to 207 °C.

`O=C(O)C(=O)Nc1ccc(CN(c2ccc(Cl)c(Cl)c2)c2nnc(-c3cccc(Oc4cccc(C(F)(F)F)c4)c3)s2)cc1` [Example 169] gave an IC50 [1] of 1 µM and a melting point of 172 to 174 °C.

In the case of `O=C(O)c1cccc(Nc2nnc(-c3cc(Oc4cccc(C(F)(F)F)c4)cc(Oc4cccc(C(F)(F)F)c4)c3)s2)c1` [Compound 198, 3-{5-[3,5-Bis-(3-trifluoromethyl-phenoxy)-phenyl]-[1,3,4]thiadiazol-2-ylamino}-benzoic acid], the IC50 [1] is reported as 4 µM.

Molecule `Clc1ccc(Nc2nnc(-c3cccc(Oc4ccc(Cl)c(Cl)c4)c3)s2)cc1Cl` [Example 153, (3,4-dichlorophenyl)(5-[3-(3,4-dichlorophenoxy)phenyl](1,3,4-thiadiazol-2-yl)}amine] has a melting point of 189 to 190 °C.

Work on `CCOc1cccc(-c2nnc(Nc3ccc(Br)c(C)c3)s2)c1` [Example 71, (4-bromo-3-methylphenyl)[5(3-ethoxyphenyl)(1,3,4-thiadiazol-2-yl)]amine] yielded a melting point of 201 to 202 °C.
